Measured values reported in patent publication US20180007910A1, “FUNGICIDAL COMPOSITION EFFECTIVE AGAINST ALTERNARIA ON CITRUS” (ARYSTA LIFESCIENCE BENELUX SPRL, priority 2015, published 2018).

Key:
[1] = tested on: Alternaria alternata; test: Field trial 2014, control of Alternaria alternata on mandarins (Alzira, Valencia, Spain); format: in vivo; conditions: Syllit 544 g/l suspension concentrate; spring, autumn and combined treatments; OECD criteria; FIG. 9
Description: (§1) A field trial was conducted for the control of Alternaria alternata on mandarins in Alzira, Valencia, Spain. The product used was Syllit 544 g/l suspension concentrate. Mandarins were harvested and classified using the OECD criteria (international quality standard for citrus established by the Organisation for Economic Co-operation and Development in 2010).

[2] = tested on: mandarins; test: Phytotoxicity observation in field trial 2014; format: in vivo; conditions: field trial 2014 on mandarins, Syllit 544 g/l suspension concentrate
Description: as §1

Question: Which results are given for `CC(=O)O.CCCCCCCCCCCCNC(=N)N` [Dodine, 1-dodecylguanidiniumethanoate]?
Answer: percentage of fruits in the category Extra compared to control group [1]: significantly higher percentage of fruit; symptoms of phytotoxicity [2]: No symptoms of phytotoxicity were observed
